# According to PubChem BioAssay AID1963441 (Molecular Pharmacology Branch, DTP, NCI, 2024):
# Test system: NCI-H1876 complex spheroid growth, % test/control
# Assay: Anticancer human tumor NCI-H1876 cell line growth inhibition [Asc];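 note: compound exposure lasted 7 days starting three days after seeding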;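 for viability, T/C: 100% = DMSO vehicle control wells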
# Conditions: for IC50: curve of first compound; for viability, T/C: stronger effect = lower value
# Method: Multicellular complex tumor spheroid response to apoptosis pathway targeting inhibitors Alrizomadlin, Pelcitoclax, and Dasminapant in combination with a variety of drugs and investigational agents in selected tumor cell lines
# The MDM2 inhibitor alrizomadlin, the Bcl-2/Bcl-xL inhibitor pelcitoclax, and the IAPs inhibitor dasminapant were evaluated both individually and in combination with standard of care and investigational anticancer small molecules within a complex spheroid model of solid tumors. . Complex spheroids include a stromal component modeled by human endothelial cells (HUVEC) and fibroblasts modeled by human mesenchymal stem cells (MSCs). The concentration ranges selected for each drug and investigational agent were based upon clinically achievable concentrations if the clinical Cmax of the agent was known.
# Compounds. The drugs and investigational agents: alrizomadlin (APG-115; NSC831270), pelcitoclax (APG-1252; NSC835773), dasminapant (APG-1387;NSC834197), TAK-243 (NSC785004), copanlisib (NSC809693), olaparib (NSC753686), talazoparib (NSC767125), cobimetinib (NSC 768068), eltanexor (KPT-8602, NSC 794443), abemaciclib (NSC 768073), sotorasib (NSC818433), adagrasib (NSC 831453), MRTX-1133 (NSC 836407), Iadademestat (ORY1001, NSC 806812), and RMC-4630 (NSC839698), were obtained from the NCI Developmental Therapeutics Program Chemical Repository. The FDA-approved anticancer drug set is available from the Developmental Therapeutics Program at https://dtp.cancer.gov/organization/dscb/obtaining/available plates.htm. […] The stock solutions were prepared in dimethyl sulfoxide (DMSO, Sigma-Aldrich, St. Louis, MO, cat. D2650) at 800-fold the tested concentration and stored at -70 degrees C prior to their use. All drugs and investigational agents were tested over a range starting from a high concentration at or near the clinical Cmax and decreasing in half-log increments. If the clinical Cmax for an agent had not been determined, the highest concentration tested was 10 microM.
# The patient-derived cancer (PDC) cell lines include five colon adenocarcinomas: 186277-243-T-J2-PDC, 616215-338-R-J1-PDC, 439559-082-T-J2-PDC, 463943-066-T-J2-PDC, and 519858-162-T-J1-PDC; three pancreatic carcinomas: 323965-272-R-J2-PDC, 521955-158-R6-J3-PDC, and 521955-158-R2-J5-PDC; two uterine sarcomas: 327498-152-R-J2-PDC and 993429-296-R-J1-PDC; two rhabdomyosarcomas: 755483-174-R-J1-PDC and 772245-204-R-J1-PDC; two soft tissue sarcomas: 126254-015-R-J1-PDC and 494315-158-R-J1-PDC; two malignant fibrous histiocytomas: 317291-083-R-J1-PDC and 596521-263-R-J1-PDC; two breast carcinomas: 171881-019-R-J1-PDC and 885512-296-R-J2-PDC; and one ovarian carcinoma: 6556581-035-R-J-PDC were obtained from the NCI PDMR, (https://pdmr.cancer.gov). The established cell lines HSSY-2 synovial sarcoma (RRID:CVCL 8719), SYO-1 synovial sarcoma (RRID:CVCL_7146), MPNST malignant peripheral neural sheath tumor were obtained from the Sloan Kettering Institute. The following established cell lines were purchased from the American Type Culture Collection (ATCC, Manassas, VA), Sor the received from the NCI repository:, PANC-1 pancreatic carcinoma (CRL-1469, RRID:CVCL_0480), OVCAR-5 ovarian carcinoma (RRID:CVCL_1628), OVCAR-8 ovarian carcinoma (RRID:CVCL_1629), , MCF-7 breast carcinoma (CRL-12584, RRID:CVCL_0031), MDA-MB-231 breast carcinoma (CRL-12532, RRID:CVCL_0062), NCI-H1876 small cell lung carcinoma (CRL-5902, RRID:CVCL_1503), NCI-H510A small cell lung carcinoma (HTB-184, RRID:CVCL_1565), NCI-H1417 (CRL-5869, RRID:CVCL_1469), and NCI-H196 small cell lung carcinoma (CRL-5823, RRID:CVCL_1509). Dr. Peter Houghton (Greehey Children's Cancer Research Institute, University of Texas Health Science Center, San Antonio, TX) provided Rh-18 rhabdomyosarcoma (RRID:CVCL_1659). Pooled donor human umbilical vein endothelial cells (HUVEC, Lonza, cat. CC-2519) and human mesenchymal stem cells (hMSC, Lonza, cat. PT-2501) were purchased from Lonza (Walkersville, MD).
# Cell Culture. […]
# [1] = second compound 0.00949 µM, first compound 0.0316 µM
# [2] = second compound 0.00949 µM, first compound 0.1 µM
# [3] = second compound 0.03 µM, first compound 0.0316 µM
# [4] = second compound 0.03 µM, first compound 0.1 µM
# [5] = second compound 0.0949 µM, first compound 0.0316 µM
# [6] = second compound 0.0949 µM, first compound 0.1 µM
# [7] = second compound 0.3 µM, first compound 0.0316 µM
# [8] = second compound 0.3 µM, first compound 0.1 µM
# [9] = second compound 0.949 µM, first compound 0.0316 µM
# [10] = second compound 0.949 µM, first compound 0.1 µM
# [11] = second compound 3 µM, first compound 0.0316 µM
# [12] = second compound 3 µM, first compound 0.1 µM
smiles,measurement,setting,value
Cn1ncnc1[C@H]1c2n[nH]c(=O)c3cc(F)cc(c23)N[C@@H]1c1ccc(F)cc1 + CCN1C(C(=O)NC23CCC(C(=O)O)(CC2)CC3)C(c2cccc(Cl)c2F)C2(C(=O)Nc3cc(Cl)ccc32)C12CCCCC2,IC50,second compound 0.00949 µM,> 0.1 µM
same,IC50,second compound 0.03 µM,> 0.1 µM
same,IC50,second compound 0.0949 µM,> 0.1 µM
same,IC50,second compound 0.3 µM,> 0.1 µM
same,IC50,second compound 0.949 µM,> 0.1 µM
same,IC50,second compound 3 µM,> 0.1 µM
same,"viability, T/C","second compound 0.00949 µM, first compound 0.000316 µM",123%
same,"viability, T/C","second compound 0.00949 µM, first compound 0.001 µM",89.9%
same,"viability, T/C","second compound 0.00949 µM, first compound 0.00316 µM",113%
same,"viability, T/C","second compound 0.00949 µM, first compound 0.01 µM",102%
same,"viability, T/C",[1],100%
same,"viability, T/C",[2],91.6%
same,"viability, T/C","second compound 0.03 µM, first compound 0.000316 µM",100%
same,"viability, T/C","second compound 0.03 µM, first compound 0.001 µM",102%
same,"viability, T/C","second compound 0.03 µM, first compound 0.00316 µM",107%
same,"viability, T/C","second compound 0.03 µM, first compound 0.01 µM",92.6%
same,"viability, T/C",[3],106%
same,"viability, T/C",[4],95.4%
same,"viability, T/C","second compound 0.0949 µM, first compound 0.000316 µM",101%
same,"viability, T/C","second compound 0.0949 µM, first compound 0.001 µM",99.4%
same,"viability, T/C","second compound 0.0949 µM, first compound 0.00316 µM",111%
same,"viability, T/C","second compound 0.0949 µM, first compound 0.01 µM",104%
same,"viability, T/C",[5],113%
same,"viability, T/C",[6],89%
same,"viability, T/C","second compound 0.3 µM, first compound 0.000316 µM",103%
same,"viability, T/C","second compound 0.3 µM, first compound 0.001 µM",120%
same,"viability, T/C","second compound 0.3 µM, first compound 0.00316 µM",111%
same,"viability, T/C","second compound 0.3 µM, first compound 0.01 µM",114%
same,"viability, T/C",[7],110%
same,"viability, T/C",[8],98.3%
same,"viability, T/C","second compound 0.949 µM, first compound 0.000316 µM",118%
same,"viability, T/C","second compound 0.949 µM, first compound 0.001 µM",134%
same,"viability, T/C","second compound 0.949 µM, first compound 0.00316 µM",117%
same,"viability, T/C","second compound 0.949 µM, first compound 0.01 µM",134%
same,"viability, T/C",[9],123%
same,"viability, T/C",[10],91.6%
same,"viability, T/C","second compound 3 µM, first compound 0.000316 µM",103%
same,"viability, T/C","second compound 3 µM, first compound 0.001 µM",105%
same,"viability, T/C","second compound 3 µM, first compound 0.00316 µM",81.3%
same,"viability, T/C","second compound 3 µM, first compound 0.01 µM",95.5%
same,"viability, T/C",[11],95.2%
same,"viability, T/C",[12],95.5%
O=C(c1cc(Cc2n[nH]c(=O)c3ccccc23)ccc1F)N1CCN(C(=O)C2CC2)CC1 + CCN1C(C(=O)NC23CCC(C(=O)O)(CC2)CC3)C(c2cccc(Cl)c2F)C2(C(=O)Nc3cc(Cl)ccc32)C12CCCCC2,IC50,second compound 0.00949 µM,> 10 µM
same,IC50,second compound 0.03 µM,> 10 µM
same,IC50,second compound 0.0949 µM,> 10 µM
same,IC50,second compound 0.3 µM,> 10 µM
same,IC50,second compound 0.949 µM,> 10 µM
same,IC50,second compound 3 µM,> 10 µM
same,"viability, T/C",[1],99.3%
same,"viability, T/C",[2],94.5%
same,"viability, T/C","second compound 0.00949 µM, first compound 0.316 µM",118%
same,"viability, T/C","second compound 0.00949 µM, first compound 1 µM",102%
same,"viability, T/C","second compound 0.00949 µM, first compound 3.16 µM",100%
same,"viability, T/C","second compound 0.00949 µM, first compound 10 µM",80.2%
same,"viability, T/C",[3],104%
same,"viability, T/C",[4],100%
same,"viability, T/C","second compound 0.03 µM, first compound 0.316 µM",97.4%
same,"viability, T/C","second compound 0.03 µM, first compound 1 µM",108%
same,"viability, T/C","second compound 0.03 µM, first compound 3.16 µM",116%
same,"viability, T/C","second compound 0.03 µM, first compound 10 µM",82%
same,"viability, T/C",[5],101%
same,"viability, T/C",[6],106%
same,"viability, T/C","second compound 0.0949 µM, first compound 0.316 µM",104%
same,"viability, T/C","second compound 0.0949 µM, first compound 1 µM",102%
same,"viability, T/C","second compound 0.0949 µM, first compound 3.16 µM",112%
same,"viability, T/C","second compound 0.0949 µM, first compound 10 µM",85.5%
same,"viability, T/C",[7],106%
same,"viability, T/C",[8],116%
same,"viability, T/C","second compound 0.3 µM, first compound 0.316 µM",108%
same,"viability, T/C","second compound 0.3 µM, first compound 1 µM",102%
same,"viability, T/C","second compound 0.3 µM, first compound 3.16 µM",112%
same,"viability, T/C","second compound 0.3 µM, first compound 10 µM",97%
same,"viability, T/C",[9],122%
same,"viability, T/C",[10],114%
same,"viability, T/C","second compound 0.949 µM, first compound 0.316 µM",110%
same,"viability, T/C","second compound 0.949 µM, first compound 1 µM",123%
same,"viability, T/C","second compound 0.949 µM, first compound 3.16 µM",117%
same,"viability, T/C","second compound 0.949 µM, first compound 10 µM",83.2%
same,"viability, T/C",[11],102%
same,"viability, T/C",[12],108%
same,"viability, T/C","second compound 3 µM, first compound 0.316 µM",101%
same,"viability, T/C","second compound 3 µM, first compound 1 µM",106%
same,"viability, T/C","second compound 3 µM, first compound 3.16 µM",98%
same,"viability, T/C","second compound 3 µM, first compound 10 µM",76.9%
